Laboratory results taken from patent US12065436B2, “Cardiac sarcomere inhibitors” (Cytokinetics, Inc., priority 2018, dated 2024).

Molecular target: bovine cardiac myofibrils (full-length cardiac myosin ATPase in the native sarcomere) (Bos taurus (Bovine), UniProt Q9BE39)
Experiment: Skinned bovine cardiac myofibril ATPase assay (PK/LDH-coupled)
Type: biochemical
Conditions: Ca2+ activating to 75% of maximal rate; for CDMF75 IC15: concentration giving 15% inhibition; for IC50: read-out: CDMF75 IC50
Procedure, shortened: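 Inhibition of steady-state ATPase read at 340 nm through a PK/LDH-coupled NADH system (0.5 mM NADH, 1.5 mM PEP). Detergent-skinned bovine cardiac myofibrils, 1 mg/mL, were tested at pH 6.8 in PIPES/MgCl2 with 50 μM ATP and calcium adjusted to give pCa50 or pCa75 activation.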

Chain of bovine cardiac myofibrils (full-length cardiac myosin ATPase in the native sarcomere) (Q9BE39 whole entry): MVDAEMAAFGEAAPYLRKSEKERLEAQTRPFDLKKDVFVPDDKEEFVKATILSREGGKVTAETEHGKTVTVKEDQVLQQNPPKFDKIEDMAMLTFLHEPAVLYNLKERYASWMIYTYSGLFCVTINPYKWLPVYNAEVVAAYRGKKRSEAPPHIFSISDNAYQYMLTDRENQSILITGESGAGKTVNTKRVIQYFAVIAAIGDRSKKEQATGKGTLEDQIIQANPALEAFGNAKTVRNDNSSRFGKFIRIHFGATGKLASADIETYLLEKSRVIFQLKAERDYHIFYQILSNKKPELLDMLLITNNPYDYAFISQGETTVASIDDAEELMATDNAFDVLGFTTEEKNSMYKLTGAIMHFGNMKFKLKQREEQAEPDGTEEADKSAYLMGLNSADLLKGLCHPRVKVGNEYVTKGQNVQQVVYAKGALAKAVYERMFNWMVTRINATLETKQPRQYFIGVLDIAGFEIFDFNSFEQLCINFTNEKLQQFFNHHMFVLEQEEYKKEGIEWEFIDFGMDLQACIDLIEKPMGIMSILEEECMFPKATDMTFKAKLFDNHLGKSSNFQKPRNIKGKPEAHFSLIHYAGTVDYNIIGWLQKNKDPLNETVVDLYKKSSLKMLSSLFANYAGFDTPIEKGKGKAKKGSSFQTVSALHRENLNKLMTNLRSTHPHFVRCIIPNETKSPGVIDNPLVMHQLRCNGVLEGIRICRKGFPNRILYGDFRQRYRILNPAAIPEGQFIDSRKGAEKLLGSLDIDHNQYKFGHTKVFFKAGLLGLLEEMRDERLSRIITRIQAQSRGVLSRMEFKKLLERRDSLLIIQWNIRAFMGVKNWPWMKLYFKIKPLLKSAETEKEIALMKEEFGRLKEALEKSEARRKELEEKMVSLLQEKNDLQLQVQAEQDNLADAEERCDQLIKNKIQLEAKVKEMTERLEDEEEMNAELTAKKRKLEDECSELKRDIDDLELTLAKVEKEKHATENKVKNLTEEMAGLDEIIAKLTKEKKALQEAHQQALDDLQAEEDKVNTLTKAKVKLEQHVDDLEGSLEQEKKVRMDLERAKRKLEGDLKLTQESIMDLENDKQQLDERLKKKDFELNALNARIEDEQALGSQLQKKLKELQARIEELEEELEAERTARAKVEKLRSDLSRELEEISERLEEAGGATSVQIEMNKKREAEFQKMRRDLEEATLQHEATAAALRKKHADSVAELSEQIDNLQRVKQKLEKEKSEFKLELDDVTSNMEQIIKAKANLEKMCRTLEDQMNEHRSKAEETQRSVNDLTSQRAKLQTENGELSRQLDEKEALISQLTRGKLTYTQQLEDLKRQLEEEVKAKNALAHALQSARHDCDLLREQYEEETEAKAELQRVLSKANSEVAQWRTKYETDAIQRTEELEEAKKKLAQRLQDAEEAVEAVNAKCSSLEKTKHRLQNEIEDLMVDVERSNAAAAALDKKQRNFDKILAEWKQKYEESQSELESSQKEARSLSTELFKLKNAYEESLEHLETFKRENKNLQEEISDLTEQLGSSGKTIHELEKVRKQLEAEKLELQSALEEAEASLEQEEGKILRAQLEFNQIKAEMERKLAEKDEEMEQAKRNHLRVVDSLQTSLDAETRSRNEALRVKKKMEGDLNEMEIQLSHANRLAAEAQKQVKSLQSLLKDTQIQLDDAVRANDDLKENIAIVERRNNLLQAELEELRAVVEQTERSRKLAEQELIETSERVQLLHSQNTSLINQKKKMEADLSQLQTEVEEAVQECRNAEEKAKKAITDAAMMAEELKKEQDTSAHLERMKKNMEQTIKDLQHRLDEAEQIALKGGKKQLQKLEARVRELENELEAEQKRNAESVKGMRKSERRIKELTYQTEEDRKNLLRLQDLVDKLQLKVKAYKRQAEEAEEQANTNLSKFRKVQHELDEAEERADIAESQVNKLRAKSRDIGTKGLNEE
Chain of bovine cardiac myofibrils (full-length cardiac myosin ATPase in the native sarcomere) (P85100 whole entry partner): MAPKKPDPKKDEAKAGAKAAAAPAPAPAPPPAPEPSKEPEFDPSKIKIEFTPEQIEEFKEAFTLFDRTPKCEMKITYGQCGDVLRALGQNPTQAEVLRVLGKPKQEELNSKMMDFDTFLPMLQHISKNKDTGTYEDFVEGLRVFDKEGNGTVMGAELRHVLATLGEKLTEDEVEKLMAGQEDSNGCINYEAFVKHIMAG
Chain of bovine cardiac myofibrils (full-length cardiac myosin ATPase in the native sarcomere) (Q3SZE5 whole entry partner): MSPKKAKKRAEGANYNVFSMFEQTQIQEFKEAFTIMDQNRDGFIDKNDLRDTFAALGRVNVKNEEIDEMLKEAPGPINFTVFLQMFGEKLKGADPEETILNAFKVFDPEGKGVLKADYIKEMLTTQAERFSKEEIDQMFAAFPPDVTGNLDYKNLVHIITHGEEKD

CDMF75 IC15 [µM] | IC50 [µM] | Compound
4.4 | 20.3 | CCc1nc(-c2ccc3c(c2)CC[C@H]3NC(=O)N2CC[C@H](O)C2)no1 [Compound 723, (S)-N-((R)-5-(5-ethyl-1,2,4-oxadiazol-3-yl)-2,3-dihydro-1H-inden-1-yl)-3-hydroxypyrrolidine-1-carboxamide]
7.4 | 39.2 | C[C@H](CO)c1nc(-c2ccc3c(c2)CC[C@H]3NC(=O)c2ccnn2C)no1 [Compound 497, N-((R)-5-(5-((R)-1-hydroxypropan-2-yl)-1,2,4-oxadiazol-3-yl)-2,3-dihydro-1H-inden-1-yl)-1-methyl-1H-pyrazole-5-carboxamide]
0.4 | 1.5 | CCc1cc(-c2ccc3c(c2)OC[C@H]3NC(=O)c2cnc(C)o2)no1 [Compound 422, (S)-N-(6-(5-ethylisoxazol-3-yl)-2,3-dihydrobenzofuran-3-yl)-2-methyloxazole-5-carboxamide]
1.7 | 7.7 | Cc1noc(C(=O)NC2CCc3cc(-c4noc(C(F)F)n4)ccc32)n1 (stereo not drawn) [Compound 127, N-(5-(5-(difluoromethyl)-1,2,4-oxadiazol-3-yl)-2,3-dihydro-1H-inden-1-yl)-3-methyl-1,2,4-oxadiazole-5-carboxamide]
2.9 | 11.9 | CCc1nc(-c2ccc3c(c2)CC[C@H]3NC(=O)c2cnn(C3CN(S(C)(=O)=O)C3)c2)no1 [Compound 478, (R)-N-(5-(5-ethyl-1,2,4-oxadiazol-3-yl)-2,3-dihydro-1H-inden-1-yl)-1-(1-(methylsulfonyl)azetidin-3-yl)-1H-pyrazole-4-carboxamide]
1.9 | 7.1 | Cc1nc(-c2ccc3c(c2)CCC3NC(=O)Nc2ccccn2)no1 (stereo not drawn) [Compound 109, 1-(5-(5-methyl-1,2,4-oxadiazol-3-yl)-2,3-dihydro-1H-inden-1-yl)-3-(pyridin-2-yl)urea]
1.6 | 5.4 | [2H]C([2H])([2H])c1nc(-c2ccc3c(c2)CC[C@H]3NC(=O)c2cnn(C)c2)no1 [Compound 244, (R)-1-methyl-N-(5-(5-(methyl-d3)-1,2,4-oxadiazol-3-yl)-2,3-dihydro-1H-inden-1-yl)-1H-pyrazole-4-carboxamide]

The next lines start with the compound.

Compound | CDMF75 IC15 [µM] | IC50 [µM]
Cc1c(C(=O)N[C@@H]2CCc3cc(-c4nc(C(F)F)no4)ccc32)cnn1C [Compound 277, (R)-N-(5-(3-(difluoromethyl)-1,2,4-oxadiazol-5-yl)-2,3-dihydro-1H-inden-1-yl)-1,5-dimethyl-1H-pyrazole-4-carboxamide] | 1.4 | 5.4
Cc1cnoc1C(=O)N[C@@H]1CCc2cc(-c3noc(C4CC4)n3)ccc21 [Compound 115, (R)-N-(5-(5-cyclopropyl-1,2,4-oxadiazol-3-yl)-2,3-dihydro-1H-inden-1-yl)-4-methylisoxazole-5-carboxamide] | 0.3 | 0.9
Cc1cc(C(=O)N[C@@H]2CCc3cc(-c4noc(C(F)F)n4)ccc32)ccn1 [Compound 32, (R)-N-(5-(5-(difluoromethyl)-1,2,4-oxadiazol-3-yl)-2,3-dihydro-1H-inden-1-yl)-2-methylisonicotinamide] | 0.6 | 2.3
Cn1nnnc1C(=O)N[C@@H]1CCc2cc(-c3noc(C(F)F)n3)ccc21 [Compound 189, (R)-N-(5-(5-(difluoromethyl)-1,2,4-oxadiazol-3-yl)-2,3-dihydro-1H-inden-1-yl)-1-methyl-1H-tetrazole-5-carboxamide] | 1.4 | 5.1
CCc1nc(-c2ccc3c(c2)CC[C@H]3NC(=O)c2cnc(C)n2C)no1 [Compound 568, (R)-N-(5-(5-ethyl-1,2,4-oxadiazol-3-yl)-2,3-dihydro-1H-inden-1-yl)-1,2-dimethyl-1H-imidazole-5-carboxamide] | 0.4 | 1.6
